Data set [1] deals with human soluble ENPP1. Conditions: substrate p-Nph-5′-TMP, Colorimetry (p-nitrophenol), cited from earlier work; for Ki: pH 9.0; for IC50: read-out: IC50 (shown in the Ki column).
Data set [2] deals with human soluble ENPP1. Set-up: method as in earlier work. Conditions: substrate ATP, Colorimetry (Molybdenum-phosphate complex), pH 9.0; cited from earlier work.
Data set [3] has as its target human soluble ENPP1. Conditions: substrate ATP, Capillary Electrophoresis, pH 9.0; cited from earlier work.
Data set [4] has as its target human soluble ENPP1. The settings on record: substrate cGAMP, Bioluminescence (Enzyme-coupling), cited from earlier work.
Data set [5] addresses T1, human ENPP1 (Homo sapiens, UniProt P22413).
T1 sequence (P22413 98-925 limits assumed): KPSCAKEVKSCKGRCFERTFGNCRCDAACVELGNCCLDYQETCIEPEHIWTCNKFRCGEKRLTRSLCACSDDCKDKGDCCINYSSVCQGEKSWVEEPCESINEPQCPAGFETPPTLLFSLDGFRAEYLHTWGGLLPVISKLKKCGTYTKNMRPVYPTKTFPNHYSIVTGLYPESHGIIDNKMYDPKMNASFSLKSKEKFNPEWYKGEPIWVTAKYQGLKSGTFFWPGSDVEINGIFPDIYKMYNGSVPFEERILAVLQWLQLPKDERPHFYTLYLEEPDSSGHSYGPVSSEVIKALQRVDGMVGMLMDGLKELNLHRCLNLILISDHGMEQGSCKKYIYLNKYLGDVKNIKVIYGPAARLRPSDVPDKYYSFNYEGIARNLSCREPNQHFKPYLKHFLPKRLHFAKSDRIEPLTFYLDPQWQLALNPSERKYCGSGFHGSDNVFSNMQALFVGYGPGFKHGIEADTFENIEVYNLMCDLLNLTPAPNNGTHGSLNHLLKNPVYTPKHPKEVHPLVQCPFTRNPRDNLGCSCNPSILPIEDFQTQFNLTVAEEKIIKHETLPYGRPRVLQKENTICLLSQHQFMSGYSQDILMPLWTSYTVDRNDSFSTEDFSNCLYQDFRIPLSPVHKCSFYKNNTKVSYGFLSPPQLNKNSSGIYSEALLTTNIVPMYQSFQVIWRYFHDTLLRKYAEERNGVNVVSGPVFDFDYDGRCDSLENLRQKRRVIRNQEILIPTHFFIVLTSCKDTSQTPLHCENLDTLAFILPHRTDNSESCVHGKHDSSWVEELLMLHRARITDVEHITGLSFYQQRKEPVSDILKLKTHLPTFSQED
Description: Fluorescent screening of ENPP1 inhibitors using ATP as substrate and Kyoto Green as reporter. It is filed as biochemical. Further details: purchased R&D systems (Minneapolis, USA). The settings on record: 2 μM ATP, 11.5 nM ENPP1, 20 min, pH 7.4; for ENPP1 inhibition in Kyoto Green screening (in words): 10 μM or maximum soluble concentration.

Data set [6] deals with T1, human ENPP1. As to the kind of experiment: biochemical.
The target in data set [7] is T1, human ENPP1. Description: Bioluminescent assay of ENPP1 using luciferin/luciferase ATP assay kit.
In data set [8] the target is T1, human ENPP1. Description: Colorimetric UV-visible assay of ENPP1 using p-Nph-5′-TMP as chromogenic substrate. Further details: purchased R&D systems (Minneapolis, USA). It is filed as biochemical.
Data set [9] has as its target T1, human ENPP1. Description: Fluorescent determination of IC50/Ki using Kyoto Green (ATP hydrolysis).
A short description of data set [10]: Solubility in water (solution preparation). Format: physicochemical.
Data set [11] can be described thus: pH-dependent stability of quercetin in aqueous solution (UV-visible spectrum). Format: physicochemical. The settings on record: 50 mM HEPES buffer (pH 7.4), 60 min, 7 µM. The procedure: page 8: 0 → 60 min 0 → 60 min Figure S7.pH -dependent stability of quercetin in aqueous solution. Time course of UV- visible spectrum (JASCO […], Japan) of quercetin ( 7 μ M) in50 m M HEPES buffer (pH 7.4) (above) or 50 mM borate buffer (pH 9.0) (below) . Inset: Absorbance at λ ma x ( 403 nm). Ratio of ethanol : buffer = 1 : 10 v/v. The buffer contain ed 10 mM NaCl, 1 mM MgCl 2, and 0.02 mM Zn(NO3)2. Measurements were performed at 25± 2 °C. S8 […]

Data set [12] addresses T1, human ENPP1. Further details: purchased R&D systems (Minneapolis, USA); method as in PMID 28011303. The settings on record: substrate of human ENPP1, pH 9.0; cited from earlier work.
The mark [13] stands for this setting: Kyoto Green fluorescence method, ATP, pH 7.4.

Read-outs that look alike come from different tables or passages of the source.

Take `Cc1nc2ncnn2c(N(C)C)c1Cc1cccc(N)c1` [Compound 1]: the Ki – broadly, a dissociation constant, usually derived from enzyme kinetics or from competition with a known ligand – on human soluble ENPP1 [1] is 480 nM; at human soluble ENPP1 [2], 2000 nM.
Regarding `COc1ccc(NC(=O)CSc2nc3c(N)ncnc3[nH]2)cc1OC` [Compound 3], the figures for the Ki on human soluble ENPP1 [3] and at human soluble ENPP1 [1] were 18000 nM and 5 nM, respectively.
Regarding `COc1cccc2c(NCc3ccc(P(=O)(O)O)cc3)c(C#N)cnc12` [Compound 5], the inhibitory constant (Ki) at human soluble ENPP1 [4] (pH 7.4) is less than 2 nM.
For the molecule `CN1Cc2c(ncnc2N2CCC(C)(CNS(N)(=O)=O)CC2)NC1=O` [Compound 6], the IC50 (in general, the concentration needed to halve the response being measured) in the data set on human soluble ENPP1 [4] (pH 8.5, read-out: IC50 (shown in the Ki column)) is 3.7 nM.
Turning to `O=c1c(O)c(-c2ccc(O)cc2)oc2cc(O)cc(O)c12` [Kaempferol, 3, 4′,5,7 -tetrahydroxyflavone], the “ENPP1 inhibition in Kyoto Green screening (in words)” value on human ENPP1 [5] is given as “ineffective as inhibitors”.
As for `O=c1c(O)c(-c2ccc(O)cc2O)oc2cc(O)cc(O)c12` [Morin, 3,5,7,2′,4′-pentahydroxyflavone], at human ENPP1 [5], the “ENPP1 inhibition in Kyoto Green screening (in words)” value is “ineffective as inhibitors”.
`O=c1c(O)c(-c2cc(O)c(O)c(O)c2)oc2cc(O)cc(O)c12` [Myricetin, 3,5,7,3′,4′,5′-hexahydroxyflavone]: the IC50 in the data set with human soluble ENPP1 [1] (pH 7.4) was 432 nM; in the data set on human soluble ENPP1 [1] (pH 9.5), 414 nM.
`O=c1c(O)c(-c2ccc(O)c(O)c2)oc2cc(O)cc(O)c12` [Quercetin, 3,5,7,3′,4′-pentahydroxyflavone]: the inhibition constant (Ki) on human ENPP1 [6] was roughly 4 nM; on human ENPP1 [8] (substrate p-Nph-5′-TMP, Colorimetry (p-nitrophenol), pH 7.4, Cheng-Prusoff, KM 222 µM), 159 ± 73 nM. Also, the half-inhibitory concentration (IC50) against human ENPP1 [7] was determined as 5.5 ± 0.6 nM; at human ENPP1 [9] it was 4.5 ± 0.9 nM. Besides, on human ENPP1 [5] (10 μM compound), the “reduction of Kyoto Green fluorescence change (F/F0-1) compared to the control group without an inhibitor” value is given as “over 90%”. Besides, on human ENPP1 [8] (700 nM quercetin, 0.1 mM p-Nph-5′-TMP, 50 mM borate buffer pH 9.0, 6.5 nM ENPP1, time course 60 min), the “ENPP1 inhibition at pH 9.0 (in words)” value is “capable of inhibiting ENPP1 at pH 9.0, but this effect was observed only for the first 10 min”. The “Ki by colorimetric method relative to Ki by Kyoto Green and commercial ATP assays” value on human ENPP1 [8] (p-Nph-5′-TMP versus ATP as substrate) was “approximately 40 fold”. Also, on human ENPP1 [9] (setting [13]), the “inhibitory efficiency of quercetin relative to myricetin” value was ~ 8 folds. Also, the “inhibitory efficiency of quercetin relative to suramin” value against human ENPP1 [9] (setting [13]) was ~ 188 folds. Besides, the solubility in water entry in data set [10] is “poor solubility in water”. The stability in buffer entry in [11] is on record as “highly stable”.
With `O=c1c(O[C@@H]2O[C@H](CO)[C@@H](O)[C@H](O)[C@H]2O)c(-c2ccc(O)c(O)c2)oc2cc(O)cc(O)c12` [Quercetin-3-glucoside, quercetin-3-glucoside], the “ENPP1 inhibition in Kyoto Green screening (in words)” value at human ENPP1 [5] is reported as “did not inhibit ENPP1”; on human ENPP1 [5] (listed as quercetin glucoside), “ineffective as inhibitors”.
Regarding `Cc1cn([C@H]2C[C@H](O)[C@@H](COP(=O)(O)Oc3ccc([N+](=O)[O-])cc3)O2)c(=O)[nH]c1=O` [p-Nph-5′-TMP, p-nitrophenyl 5′-thymidine monophosphate], at human ENPP1 [12], the Km – broadly, the concentration of substrate that gives half-maximal velocity – was 222 µM.

(Values after publication PMC10761680 (Scientific Reports, 2024).)
